# System: Hepatitis C virus
# Assay: Antiviral activity against HCV Con1 GT1b by replicon assay
# Format: functional, organism-based, Hepacivirus hominis
# Conditions: Hepatitis C virus, Con1 GT1b
Structure (SMILES),EC50 [µM],IC50 [µM]
COc1cccc(OP(=O)(N[C@@H](C)C(=O)OCc2ccccc2)OC[C@@]2(N=[N+]=[N-])O[C@@H](n3ccc(N)nc3=O)[C@H](O)[C@@H]2O)c1 (some centres not stated),8.8,–
CCOC(=O)[C@H](CC(C)C)NP(=O)(OC[C@@]1(N=[N+]=[N-])O[C@@H](n2ccc(N)nc2=O)[C@H](O)[C@@H]1O)Oc1ccc(Cl)cc1 (some centres not stated),2.5,–
CCCCOC(=O)[C@H](C)NP(=O)(OC[C@@]1(N=[N+]=[N-])O[C@@H](n2ccc(N)nc2=O)[C@H](O)[C@@H]1O)Oc1ccccc1 (some centres not stated),11,–
CC(C)C[C@@H](NP(=O)(OC[C@@]1(N=[N+]=[N-])O[C@@H](n2ccc(N)nc2=O)[C@H](O)[C@@H]1O)Oc1ccccc1)C(=O)OCc1ccccc1 (some centres not stated),–,4.2
C[C@H](NP(=O)(OC[C@@]1(N=[N+]=[N-])O[C@@H](n2ccc(N)nc2=O)[C@H](O)[C@@H]1O)Oc1ccccc1Cl)C(=O)OCc1ccccc1 (some centres not stated),3.5,–
COC(=O)[C@H](C)NP(=O)(OC[C@@]1(N=[N+]=[N-])O[C@@H](n2ccc(N)nc2=O)[C@H](O)[C@@H]1O)Oc1ccccc1 (some centres not stated),3.1,–
C[C@H](NP(=O)(OC[C@@]1(N=[N+]=[N-])O[C@@H](n2ccc(N)nc2=O)[C@H](O)[C@@H]1O)Oc1ccccc1)C(=O)OCc1ccccc1 (some centres not stated),6,–
CCOC(=O)C[C@H](NP(=O)(OC[C@@]1(N=[N+]=[N-])O[C@@H](n2ccc(N)nc2=O)[C@H](O)[C@@H]1O)Oc1ccccc1)C(=O)OCC (some centres not stated),–,4.4
CCOC(=O)[C@H](CC(C)C)NP(=O)(OC[C@@]1(N=[N+]=[N-])O[C@@H](n2ccc(N)nc2=O)[C@H](O)[C@@H]1O)Oc1ccc(Cl)c(Cl)c1 (some centres not stated),2.3,–
CCOC(=O)[C@H](CC(C)C)NP(=O)(OC[C@@]1(N=[N+]=[N-])O[C@@H](n2ccc(N)nc2=O)[C@H](O)[C@@H]1O)Oc1ccccc1 (some centres not stated),11,–
CCOC(=O)C1(NP(=O)(OC[C@@]2(N=[N+]=[N-])O[C@@H](n3ccc(N)nc3=O)[C@H](O)[C@@H]2O)Oc2ccccc2)CCCC1 (some centres not stated),–,56
CCCCOC(=O)[C@@H](C)NP(=O)(OC[C@@]1(N=[N+]=[N-])O[C@@H](n2ccc(N)nc2=O)[C@H](O)[C@@H]1O)Oc1ccccc1 (some centres not stated),0.94,–
C[C@H](NP(=O)(OC[C@@]1(N=[N+]=[N-])O[C@@H](n2ccc(N)nc2=O)[C@H](O)[C@@H]1O)Oc1ccccc1)C(=O)OC(C)(C)C (some centres not stated),0.72,–
CCC(C)OC(=O)[C@H](C)NP(=O)(OC[C@@]1(N=[N+]=[N-])O[C@@H](n2ccc(N)nc2=O)[C@H](O)[C@@H]1O)Oc1ccccc1 (some centres not stated),0.62,–
CCOC(=O)[C@@H]1CCCN1P(=O)(OC[C@@]1(N=[N+]=[N-])O[C@@H](n2ccc(N)nc2=O)[C@H](O)[C@@H]1O)Oc1ccccc1 (some centres not stated),> 100,–
CCOC(=O)CCNP(=O)(OC[C@@]1(N=[N+]=[N-])O[C@@H](n2ccc(N)nc2=O)[C@H](O)[C@@H]1O)Oc1ccccc1 (some centres not stated),–,47
Cc1ccc(OP(=O)(N[C@@H](C)C(=O)OCc2ccccc2)OC[C@@]2(N=[N+]=[N-])O[C@@H](n3ccc(N)nc3=O)[C@H](O)[C@@H]2O)cc1 (some centres not stated),0.51,–
CCCCCCCCCCCCOC(=O)[C@@H](C)NP(=O)(OC[C@@]1(N=[N+]=[N-])O[C@@H](n2ccc(N)nc2=O)[C@H](O)[C@@H]1O)Oc1ccccc1 (some centres not stated),30,–
C[C@H](NP(=O)(OC[C@@]1(N=[N+]=[N-])O[C@@H](n2ccc(N)nc2=O)[C@H](O)[C@@H]1O)Oc1ccc(Br)cc1)C(=O)OCc1ccccc1 (some centres not stated),6.5,–
CCOC(=O)[C@H](CC(C)C)NP(=O)(OC[C@@]1(N=[N+]=[N-])O[C@@H](n2ccc(N)nc2=O)[C@H](O)[C@@H]1O)Oc1ccc(OC)cc1 (some centres not stated),9.3,–
CC(C)[C@H](NP(=O)(OC[C@@]1(N=[N+]=[N-])O[C@@H](n2ccc(N)nc2=O)[C@H](O)[C@@H]1O)Oc1ccccc1)C(=O)OCc1ccccc1 (some centres not stated),5.6,–
CCOC(=O)[C@H](CCSC)NP(=O)(OC[C@@]1(N=[N+]=[N-])O[C@@H](n2ccc(N)nc2=O)[C@H](O)[C@@H]1O)Oc1ccccc1 (some centres not stated),18,–
CCOC(=O)[C@@H](C)NP(=O)(OC[C@@]1(N=[N+]=[N-])O[C@@H](n2ccc(N)nc2=O)[C@H](O)[C@@H]1O)Oc1ccccc1 (some centres not stated),2.3,–
CC(C)OC(=O)[C@H](C)NP(=O)(OC[C@@]1(N=[N+]=[N-])O[C@@H](n2ccc(N)nc2=O)[C@H](O)[C@@H]1O)Oc1ccccc1 (some centres not stated),0.99,–
C[C@@H](NP(=O)(OC[C@@]1(N=[N+]=[N-])O[C@@H](n2ccc(N)nc2=O)[C@H](O)[C@@H]1O)Oc1ccccc1)C(=O)OC(C)(C)C (some centres not stated),> 100,–
"C[C@H](NP(=O)(OC[C@@]1(N=[N+]=[N-])O[C@@H](n2ccc(N)nc2=O)[C@H](O)[C@@H]1O)Oc1cccc2ccccc12)C(=O)OCc1ccccc1 (single isomer, unassigned; diastereomer 2)",1.2,–
"C[C@H](NP(=O)(OC[C@@]1(N=[N+]=[N-])O[C@@H](n2ccc(N)nc2=O)[C@H](O)[C@@H]1O)Oc1ccc2ccccc2c1)C(=O)OCc1ccccc1 (single isomer, unassigned; diastereomer 2)",2.9,–
[N-]=[N+]=N[C@]1(CO)O[C@@H](n2ccc(N)nc2=O)[C@H](O)[C@@H]1O [4'-AZIDOCYTIDINE],1.28,–

# System: Hepatitis C virus
# Assay: Antiviral activity against HCV Con1 GT1b at 100 uM by replicon assay
# Format: functional, Hepacivirus hominis
# Conditions: not given
row,Structure (SMILES),inhibition at 100 µM [%]
1,CC(C)C[C@@H](NP(=O)(OC[C@@]1(N=[N+]=[N-])O[C@@H](n2ccc(N)nc2=O)[C@H](O)[C@@H]1O)Oc1ccccc1)C(=O)OCc1ccccc1 (some centres not stated),88
2,CCOC(=O)C[C@H](NP(=O)(OC[C@@]1(N=[N+]=[N-])O[C@@H](n2ccc(N)nc2=O)[C@H](O)[C@@H]1O)Oc1ccccc1)C(=O)OCC (some centres not stated),88
3,CCOC(=O)C1(NP(=O)(OC[C@@]2(N=[N+]=[N-])O[C@@H](n3ccc(N)nc3=O)[C@H](O)[C@@H]2O)Oc2ccccc2)CCCC1 (some centres not stated),69
4,CCOC(=O)CCNP(=O)(OC[C@@]1(N=[N+]=[N-])O[C@@H](n2ccc(N)nc2=O)[C@H](O)[C@@H]1O)Oc1ccccc1 (some centres not stated),77

# — ChEMBL document CHEMBL1152361, “The application of phosphoramidate ProTide technology to the potent anti-HCV compound 4'-azidocytidine (R1479)” (Bioorg Med Chem Lett, 2009)
